Measurements reported in publication PMC9774600, “Oligopeptide Sortase Inhibitor Modulates Staphylococcus aureus Cell Adhesion and Biofilm Formation” (Antibiotics, 2022).
“Also recorded” adds a separate entry of the source.

Experiments:
[1] = system: S. aureus ATCC 29213 (MSSA) adhesion to Vero cells; assay: Adhesion of LPRDA-modified S. aureus to Vero cells; format: cell-based, Staphylococcus aureus; details: for AI (adhesion index): control 5.2 ± 0.3; for PI (percentage of infected cells): control 100; for ML (microbial load, AI×PI): control 516.7 ± 31.1
Method: (§1) The influence of LPRDA on staphylococcal adhesive properties was evaluated using preliminary incubation of the studied bacterial strains with LPRDA for 18 h and subsequent microscopic detection of adhesion cases of the modified staphylococci to African green monkey kidney epithelial cells (Vero). The following parameters were determined from the adhesion experiments: adhesion index (AI), defined as the average number of attached bacterial cells per eukaryotic cell; percentage of infected cells (PI), defined as the proportion of Vero cells with bacteria adhered to their surface; microbial load (ML), defined as a product AI×PI; and adhesion inhibition index (AII), defined as the ratio of experimental AI to control.
(§2) Vero cells were seeded in 96-well plates at 25 × 10^3 cells/well and grown overnight. Bacterial cells (S. aureus ATCC 29213 or S. aureus ATCC 43300) were incubated with the oligopeptide LPRDA in the concentration range 12.5–100 µmol/L at 37 °C for 18 h with constant shaking at 100 rpm. Luria–Bertani (LB) medium and untreated bacteria served as a control. After incubation, the bacterial suspension was centrifuged at 10,000× g rpm for 10 min and washed twice with sterile PBS for 5 min at 10,000 rpm. The final bacterial concentrations were adjusted to the OD560 of 0.3 McFarland in sterile saline. Next, the monolayer of Vero cells in the 96-well plates was inoculated with 100 μL of the bacterial suspension with an equal volume of the stock DMEM culture medium and incubated for 1 h. The monolayer was washed three times with phosphate-buffered saline (PBS), followed by fixation with 4% formaldehyde for 60 min. Then, the wells of the plates were washed twice with PBS, dried, and stained with purified gentian violet solution (1%) for 15 min. The dye was removed, and images were captured in […] at 40× using an Evos FL microscope (Thermo Fisher Scientific, Waltham, MA, USA). Images were captured in 4–10 random fields of view at 40-fold magnification using an Evos FL microscope. Images were analyzed using ImageJ Fiji software v1.53c.

[2] = system: S. aureus ATCC 43300 (MRSA) adhesion to Vero cells; assay: Adhesion of LPRDA-modified S. aureus to Vero cells; format: cell-based, Staphylococcus aureus; details: for AI (adhesion index) / PI (percentage of infected cells) / ML (microbial load, AI×PI): 18 h pre-incubation; for AI (adhesion index): control 7.6 ± 0.1; for PI (percentage of infected cells): control 100; for ML (microbial load, AI×PI): control 755.9 ± 10.6
Method: as §1, §2

[3] = system: S. aureus ATCC 29213 (MSSA) biofilm; assay: Inhibition of biofilm formation assay; format: cell-based, Staphylococcus aureus; details: 100 µmol/L LPRDA
Method: (§3) The assay was performed according to the protocol described by O’Toole, with minor modifications. To evaluate the effect of LPRDA on biofilm formation by the S. aureus ATCC 29213 and S. aureus ATCC 43300 strains, 150 µL of sterile LB broth with 4% glucose containing 12.5–100 µmol/L concentrations of LPRDA was added to four wells of 96-well plates. Then, 50 µL of staphylococcal culture (1 × 10^7 CFU/mL) was added and incubated at 37 °C for 24 h. LB culture broth that was not treated with LPRDA was used as the positive control. After 24 h, the plates were washed with PBS to remove planktonic and dead cells, stained with a 0.1% solution of gentian violet for 20 min, followed by extraction of the bound dye with 96% ethanol. The optical density (OD) of the obtained extracts was measured at 570 nm using a SPECTROstar Nano spectrophotometer.
(§4) The bacterial strains were classified into categories according to the Stepanović criteria. Quantitative calculation of S. aureus CFU in the biofilm formed in the presence of LPRDA and in the control experiments was assessed by inoculation on Columbia agar according to the Koch procedure. Inhibition of biofilm formation was determined according to the Kumari method.

[4] = system: S. aureus ATCC 43300 (MRSA) biofilm; assay: Inhibition of biofilm formation assay; format: cell-based, Staphylococcus aureus; details: 24 h
Method: as §3, §4

[5] = format: physicochemical
Source text: The pentapeptide LPRDA was synthesized using the solid-phase peptide 9-fluorenylmethoxycarbonyl chemistry method. […] HRMS (ESI, m/z): [M + H]^+ calculated for C24H42N8O8, 571.3204; found, 571.3188.

S. aureus = details: cited from earlier work
Source text: This concentration is at least eight times higher than those used for inducing antiadhesive effects, which is consistent with the LPRDA MIC > 200 µmol/L reported in [18]. A lack of bactericidal activity is an essential property for antivirulence therapeutics. The following experiments have found differ ...

[6] = system: community-associated MRSA strain USA300; details: 25 µmol/L LPRDA, compared with srtA mutants; cited from earlier work
Method: Wang et al. studied the community-associated MRSA strain USA300 and its srtA mutants in a biofilm formation assay. […] We studied the influence of LPRDA at concentrations of 12.5 to 100 µmol/L on biofilm production by the MSSA and MRSA strains used in this adhesion experiment. We observed a concentration-dependent decrease in the amount of biofilm formed by the S. aureus ATCC 29213 (MSSA) strain when it was incubated with increasing concentrations of LPRDA (F ...

[7] = system: S. aureus-induced mastitis; details: mouse model; cited from earlier work
Source text: Only a few SrtA inhibitors have been evaluated in vivo, and so far, none have advanced to clinical trials, which would necessitate an actual efficacy evaluation and follow-up of the in-depth studies of these compounds [17]. […] Due to our interest in the development of novel antibacterials with antiadhesive mechanisms of action, we selected a reference compound with ...

S. aureus SrtA = details: read-out: IC50 inhibition of the recombinant enzyme; cited from earlier work
[8] = MSSA pre-incubated 18 h with 100 µmol/L LPRDA, then 1 h with Vero cells, mean ± SD
[9] = MSSA, 12.5 µmol/L LPRDA, 18 h pre-incubation
[10] = MSSA, 25 µmol/L LPRDA, 18 h pre-incubation, mean ± SD
[11] = MSSA, 50 µmol/L LPRDA, 18 h pre-incubation, mean ± SD
[12] = MSSA, 100 µmol/L LPRDA, p = 0.021
[13] = highest studied LPRDA concentration (100 µmol/L), p = 0.01

## Leu-Pro-Arg-Asp-Ala [LPRDA]
[1]; [8]
  AI (adhesion index): 3.4 ± 0.4; 0.021
  PI (percentage of infected cells): 84.0 ± 2.8; 0.021%
  ML (microbial load, AI×PI): 286.9 ± 38.8; 0.009
[1]; [9]
  AI (adhesion index): 5.4; 0.53
  PI (percentage of infected cells): 100; 0.53%
  ML (microbial load, AI×PI): 542.9; 0.53
[1]; [10]
  AI (adhesion index): 4.8 ± 0.2; 0.43
  PI (percentage of infected cells): 99.0 ± 0.8; 0.373%
  ML (microbial load, AI×PI): 471.1 ± 26.5; 0.414
[1]; MSSA, 50 µmol/L LPRDA
  AII (adhesion inhibition index, ratio of experimental AI to control): 55.8%
[1]; [11]
  AI (adhesion index): 2.9 ± 0.2; 0.01
  PI (percentage of infected cells): 85.0 ± 4.6; 0.054%
  ML (microbial load, AI×PI): 240.8 ± 9.2; 0.002
[1]; MSSA, 100 µmol/L LPRDA
  AII (adhesion inhibition index, ratio of experimental AI to control): 65.4%
[1]; MSSA, 100 µmol/L LPRDA, 1 h incubation with Vero cells
  AI reduction: 1.5 times
[1]; MSSA, 100 µmol/L LPRDA, p = 0.009
  ML decrease relative to the control: 45%
[1]; [12]
  AI decrease relative to the control: 34.6%
  PI decrease relative to the control: 16%
[1]; MSSA, LPRDA concentrations below 50 µmol/L
  Antiadhesive effect: did not have a notable antiadhesive effect
[2]; 12.5 µmol/L LPRDA
  AI (adhesion index): 7.9; 0.056
  PI (percentage of infected cells): 100; – %
  ML (microbial load, AI×PI): 790.2; 0.056
[2]; 25 µmol/L LPRDA
  PI (percentage of infected cells): 100; – %
[2]; 25 µmol/L LPRDA, mean ± SD
  AI (adhesion index): 7.4 ± 0.1; 0.516
  ML (microbial load, AI×PI): 744.2 ± 8.3; 0.516
[2]; 50 µmol/L LPRDA
  PI (percentage of infected cells): 100; – %
[2]; 50 µmol/L LPRDA, mean ± SD
  AI (adhesion index): 7.3 ± 0.2; 0.332
  ML (microbial load, AI×PI): 727.4 ± 18.2; 0.33
[2]; 100 µmol/L LPRDA
  PI (percentage of infected cells): 100; – %
[2]; 100 µmol/L LPRDA, mean ± SD
  ML (microbial load, AI×PI): 679.2 ± 13.6; 0.01
[2]; 100 µmol/L LPRDA, then 1 h with Vero cells, mean ± SD
  AI (adhesion index): 6.8 ± 0.1; 0.01
[2]; 12.5–100 µmol/L LPRDA
  Antiadhesive effect: did not induce an appreciable antiadhesive effect; also recorded: did not induce a significant antiadhesive effect
[2]; [13]
  AI lower than the control: approximately 10%
  ML lower than the control: approximately 10%
[3]; 24 h, control 5 × 10^6 CFU/mL, inoculation on Columbia agar
  Number of sessile bacterial cells in biofilm: 5 × 10^5 CFU/mL
[3]; 24 h, gentian violet OD 570 nm
  Reduction in biofilm: 44%
[3]; 24 h incubation
  Decrease in sessile cell bacteria number: 10 fold
[4]; 100 µmol/L LPRDA (maximum decrease), gentian violet OD 570 nm
  Decrease in biofilm formation (biomass): 12%
[4]; 12.5–100 µmol/L LPRDA
  Number of sessile bacteria versus control: No significant difference
[5]
  Solubility: soluble in water
S. aureus
  MIC: > 200 µM
[6]
  Biofilm formation: attenuated biofilm formation to the level of knocked out bacteria
[7]
  Protection against S. aureus-induced mastitis: demonstrated protection against S. aureus-induced mastitis
S. aureus SrtA
  IC50: 10.6 µM
